This passage reports Activity and relative binding affinity (RBA) results from ChEMBL document CHEMBL1124667 (1989).

The test system of assay [1] is MCF7. The assay is described as follows: Growth inhibitory activity against MCF-7 human breast tumor cell line at a concentration of 10e-8 M in vitro. The class given is functional. Also on record: scale not given: the % may be the effect or the level left.
Assay [2] concerns MCF7. The assay can be described thus: Growth inhibitory activity against MCF-7 human breast tumor cell line at a concentration of 10e-6 M in vitro. It is filed as functional. Also noted: scale not given: the % may be the effect or the level left.
The subject of assay [3] is MCF7. The assay can be described thus: Growth inhibitory activity against MCF-7 human breast tumor cell line at a concentration of 10e-7 M in vitro. It is filed as functional. Also noted: scale not given: the % may be the effect or the level left.
Assay [4] deals with Estrogen receptor (Homo sapiens) (UniProt Q92731+P03372). The assay can be described thus: Relative binding affinity against estrogen receptors in MCF-7 whole cells. The settings on record: MCF7. It is filed as cell-based.

`CC/C(=C(\c1ccc(I)cc1)c1ccc(OCCN2CCCC2)cc1)c1ccccc1` [IDOXIFENE]: the values for the Activity in assay [1], in assay [2] and in assay [3] were 84%, 20% and 27%, respectively.

In the case of `CC/C(=C(/c1ccc(OCCN(C)C)cc1)c1ccc(S(C)(=O)=O)cc1)c1ccccc1`, the Activity was 125% in assay [1], 29% in assay [2] and 75% in assay [3].

As for `CC/C(=C(/c1ccccc1)c1ccc(OCCN(C)C)cc1)c1ccccc1`, the values for the Activity in assay [1], in assay [2] and in assay [3] were 135%, 137% and 140%, respectively.

In the case of `CC/C(=C(\c1ccc(OCCN(C)C)cc1)c1ccc(SC)cc1)c1ccccc1`, the results for the Activity in assay [1], in assay [2] and in assay [3] were 102%, 69% and 117%, respectively.

For `CC/C(=C(\c1ccc(Cl)cc1)c1ccc(OCCN(C)C)cc1)c1ccccc1`, the Activity in assay [1] is recorded as 116%; in assay [2], 56%; in assay [3], 119%.

Consider `CC/C(=C(\c1ccc(OCCN(C)C)cc1)c1ccc(S(C)(=O)=O)cc1)c1ccccc1`, for which the Activity stood at 88% in assay [1], 140% in assay [2] and 114% in assay [3].

With `CC/C(=C(\c1ccc(S)cc1)c1ccc(OCCN(C)C)cc1)c1ccccc1`, the Activity in assay [1] is on record as 94%; in assay [2] it was 147%; in assay [3], 110%.

Take `CC/C(=C(\c1ccccc1)c1ccc(OCCN(C)C)cc1)c1ccccc1` [TAMOXIFEN]: the Activity is listed as 119% in assay [1], 70% in assay [2] and 100% in assay [3].

As for `CC/C(=C(/c1ccc(OCCN(C)C)cc1)c1ccc(SC)cc1)c1ccccc1`, the Activity is given as 154% in assay [1], 54% in assay [2] and 66% in assay [3].

On to `CC/C(=C(\c1ccc(I)cc1)c1ccc(OCCN(C)C)cc1)c1ccccc1`, for which the values for the Activity in assay [1], in assay [2] and in assay [3] were 115%, 26% and 42%, respectively.

For the compound `CC/C(=C(\c1ccc(I)cc1)c1ccc(OCCN(CC)CC)cc1)c1ccccc1`, the results for the Activity in assay [1], in assay [2] and in assay [3] were 101%, 23% and 35%, respectively.

For the compound `CC/C(=C(/c1ccc(OCCN(C)C)cc1)c1ccc([S+](C)[O-])cc1)c1ccccc1` (centres undefined), the Activity in assay [1] turned out to be 177%; in assay [2] it was 238%; in assay [3] it was 237%.

With `CC/C(=C(/c1ccc(OCCN(C)C)cc1)c1cccc(I)c1)c1ccccc1`, the figures for the Activity in assay [1], in assay [2] and in assay [3] were 100%, 27% and 68%, respectively.

Consider `CC/C(=C(/c1ccc(I)cc1)c1ccc(OCCN(C)C)cc1)c1ccccc1`, for which the Activity in assay [1] stood at 99%; in assay [2], 120%; in assay [3], 126%.

For the compound `CC/C(=C(/c1ccc(Br)cc1)c1ccc(OCCN(C)C)cc1)c1ccccc1`, the Activity is reported as 110% in assay [1], 174% in assay [2] and 163% in assay [3].

Turning to `CC/C(=C(/c1ccc(OCCN(C)C)cc1)c1ccc(C2CO2)cc1)c1ccccc1` (centres undefined), the Activity in assay [1] was determined as 113%; in assay [2], 19%; in assay [3] it was 42%.

As for `CCC(=C(c1ccc(O)cc1)c1ccc(OCCN(C)C)cc1)c1ccccc1`, the results for the Activity in assay [1], in assay [2] and in assay [3] were 48%, 15% and 38%, respectively.

In the case of `CC/C(=C(\c1ccc(OCCN(C)C)cc1)c1ccc([S+](C)[O-])cc1)c1ccccc1` (centres undefined), the Activity is 112% in assay [1], 67% in assay [2] and 135% in assay [3].

`CC/C(=C(\c1ccc(Br)cc1)c1ccc(OCCN(C)C)cc1)c1ccccc1`: the Activity turned out to be 130% in assay [1], 63% in assay [2] and 101% in assay [3].

In the case of `CC/C(=C(\c1ccc(C=O)cc1)c1ccc(OCCN(C)C)cc1)c1ccccc1`, the Activity is 62% in assay [1], 42% in assay [2] and 38% in assay [3].

For the compound `CC/C(=C(\c1ccc(CO)cc1)c1ccc(OCCN(C)C)cc1)c1ccccc1`, the results for the Activity in assay [1], in assay [2] and in assay [3] were 164%, 150% and 145%, respectively. The same compound registered a relative binding affinity (RBA) in assay [4] of 1.5.
